Test results taken from ChEMBL document CHEMBL3507680, “University of Dundee, Gates Library screen for HepG2 cell viability”.

Test: Human HepG2 cell viability assay in 384 well format
Type: toxicity, cell-based
Parameters: dose 125 nL, time 70.5 hour; concentration not given beside the values
Conditions: HepG2 cells, read-out: Inhibition

SMILES	cytotoxicity at 70.5 h
Cc1ccc(S(=O)(=O)Nc2c(C)nn(C)c2C)cc1C	-5.46%
O=C(CNC(=O)c1ccccc1F)NCc1ccccn1	-7.71%
CCCn1nc(C(=O)NC2(c3ccc(Cl)cc3)CCCC2)ccc1=O	-7.76%
N#Cc1cccc(S(=O)(=O)NC(=O)C2CC(c3ccccc3)=NO2)c1 (centres undefined)	-18.7%
Cc1nc(CNc2ccccc2CCC(F)(F)F)cs1	-9.96%
O=C(c1cc(C2CCCC2)no1)N1CC(O)C1	-3.97%
O=C(CNC(=O)C1(c2ccc(F)cc2F)CCC1)Nc1ccccn1	-3.32%
O=C(CNC(=O)C1(c2ccc(F)cc2F)CCC1)Nc1cccnc1	31.2%
CC(C)n1nnnc1-c1ccc(NC(=O)CC(F)(F)F)cc1F	-1.35%
COCc1ccccc1NCc1csc(NC(C)=O)n1	-7.46%
Cc1cc(C)n(CCCNC(=O)C2CCCO2)n1 (centres undefined)	2.61%
O=C1CN(Cc2occc2C(=O)NCCc2ccc(F)cc2)CCN1	2.4%
CC(C)n1nnnc1-c1ccc(NC(=O)N(C)CCN(C)C)cc1F	-7.88%
Cn1cc(C(O)CNC(=O)c2sccc2OC(F)F)cn1 (centres undefined)	-4.33%
Cc1cccc(OCC(=O)NS(=O)(=O)Cc2ccccc2)c1	-5.52%
O=C(COc1ccccc1)NS(=O)(=O)Cc1ccccc1	-1.17%
CC(=O)c1cccc(OCCCC(=O)N(C)C2CCN(C)CC2)c1	-7.34%
Cc1nc(C)n(CC2CCCN2Cc2ccc(F)cc2C#N)n1 (centres undefined)	5.18%
O=C(Nc1ccc(N2CCCCC2)cn1)C1CCCN1C(=O)C1CC1 (centres undefined)	-4.38%
CC(C)CN(C(=O)COc1ccc(C(N)=O)cc1)C1CCN(C)CC1	-4.39%
CCC(CC)(CNC(=O)OC(C)(C)C)NC(=O)c1cnccn1	0.78%
Cc1csc(-c2ccc(NC(=O)N3CCOCC3)cc2)n1	-0.264%
OCCN1CCN(CC2(O)CCCCC2)CC1	0.0783%
Cc1ccccc1C(O)CNC(=O)Cc1ccc(F)cc1 (centres undefined)	-2.44%

SMILES	cytotoxicity at 70.5 h
Cc1cc(OC(F)F)c(C(=O)NCC(O)c2cccc(F)c2)s1 (centres undefined)	6.81%
O=C1CC(C(=O)Nc2nnc(-c3cccs3)[nH]2)c2ccccc2N1 (centres undefined)	-2.83%
CC(C)(CNC(=O)C1(c2ccccc2)CCOCC1)C(=O)O	-1.55%
Cc1cccc(N2CCC(NC(C)c3cccs3)CC2)n1 (centres undefined)	10.3%
O=C(O)CCNC(=O)C1(c2cccc(Br)c2)CCOCC1	-0.861%
OCCN1CCN(Cc2cc(Cl)cc3cccnc23)CC1	4.47%
Cc1noc(CN(Cc2ccco2)Cc2cccc3c2OCO3)n1	-1.63%
Cc1noc(CN(Cc2ccc3c(c2)OCCO3)Cc2ccco2)n1	-3.69%
Cc1ncc2c(n1)CN(CC1CCCCO1)CC2 (centres undefined)	5.6%
Clc1cc(CN2CCCN3CCCC3C2)c2ncccc2c1 (centres undefined)	-2.91%
CN1CCOC(CNCc2nc(-c3ccoc3)no2)C1 (centres undefined)	-6.11%
Cc1cc(C2CCCN(C(=O)COc3cccc(F)c3)C2)n[nH]1 (centres undefined)	-5.26%
CCOC(=O)N(C)C1CCN(Cc2csc(C)n2)CC1	2.22%
CCN(C(=O)CN1CCCC1c1c(C)nn(C)c1OC)C1CC1 (centres undefined)	-6.09%
CCc1nccn1CC1CCCN1S(=O)(=O)N1CCCOCC1 (centres undefined)	23.7%
CCCn1nnnc1COC(=O)C1Cc2cc(Cl)ccc2O1 (centres undefined)	-9.18%
Cc1ccccc1C(=O)NCC(=O)NCc1ccccn1	15.5%
COc1cccc(CN(C)Cc2c(C)noc2C)c1OC	-3.33%
O=C1CN(C(=O)c2cc3ccc(Br)cc3[nH]2)CCN1	-9.95%
COc1cccc(CCC(=O)Nc2ccn(C)n2)c1OC	-10%
CCOc1ccc2cc(C(=O)NCCC(=O)N(C)C)[nH]c2c1	-7.75%
Cc1cc(CNCC2CNc3ccnn3C2)no1 (centres undefined)	19.3%
COC1CCN(c2ccc(F)cc2CN(C)C(C)C(N)=O)CC1 (centres undefined)	-1.51%
Cc1ccc(-c2noc(Cn3nc(C(N)=O)ccc3=O)n2)cc1	-8.12%

SMILES	cytotoxicity at 70.5 h
CN(Cc1ccc(C#N)cc1)CC1CCS(=O)(=O)C1 (centres undefined)	-8.96%
COc1c(C2CCCN2CC(=O)N(C)c2nccs2)c(C)nn1C (centres undefined)	0.589%
COc1cc(C)c(S(=O)(=O)CC(=O)N(C)C(C)C)cc1OC	-5.84%
O=C(CNC(=O)c1ccccc1I)NCc1ccccc1F	-10.2%
CCn1ccnc1CNCc1ccc(C)cc1OC(C)(C)C	-11%
Cc1nc(NC(=O)C(C)N(C)Cc2cccc(C#N)c2)sc1C (centres undefined)	15.8%
Cc1ccc(CNC(=O)NCc2nccn2C)c(OC(C)(C)C)c1	-2.56%
CCCn1nnnc1COC(=O)C1COc2ccccc2O1 (centres undefined)	-6.23%
CCSCc1cccc(NCc2cccnc2)c1	-14.7%
COc1cccc(CN(C)C(C)C(=O)Nc2nc(C)c(C)s2)c1 (centres undefined)	-11.4%
Cc1cnn(CC2CCN(CC(O)Cn3cccn3)CC2)c1 (centres undefined)	-6.24%
CC(=O)N1CCC(NC(=O)c2ccccc2-n2cnnn2)CC1	-3.54%
Cn1ccc(C(=O)N2CCCC2c2ccc3c(c2)OCCO3)cc1=O (centres undefined)	-2.74%
O=C(NC1CC1)c1cc(Cl)ccc1-n1cnnn1	-6.19%
COc1cccc(C2CCCN2C(=O)c2ccc(=O)n(C)c2)c1 (centres undefined)	-3.72%
COC(=O)CCNC(=O)c1c[nH]cc1-c1ccccc1OC	-3.42%
CCC(C)NC(=O)CCNC(=O)c1c[nH]cc1-c1cccc(OC)c1 (centres undefined)	2.46%
N#Cc1cc(C#N)c(SCCC(=O)Nc2ccc(F)cc2)nc1N	-12.6%
CCCNC(=O)NCc1nc(C)c(C)o1	7.79%
CN(C)c1ccc(CNC2(c3ccc(F)cc3)CCOCC2)cc1F	-7.63%
NC(=O)C1CCN(C(=O)CSC2CCCc3ccccc32)CC1 (centres undefined)	1.96%
Cc1nc(CNC(=O)NCC(F)(F)F)oc1C	3.56%
COc1c(NS(=O)(=O)c2ccc(C)c(C)c2)c(C)nn1C	2.79%
COCC(=O)N[C@H](C(=O)NC(C)c1cc(C)ccc1C)C(C)C (some centres undefined)	-0.855%

SMILES	cytotoxicity at 70.5 h
CCn1nc2c(cc1=O)CN(c1nc3ccccc3s1)CC2	16.9%
O=C(CN1CCCNC1=O)N(Cc1ccccc1)CC(F)F	1.59%
COCC(=O)N[C@H](C(=O)NC(C)c1cccc(C)c1C)C(C)C (some centres undefined)	0.118%
Cc1nc(-c2ccc(CC(=O)N3CCNC(=O)C3)cc2)cs1	9.75%
CC(C)c1nc(NC(=O)CCCn2cccc2)n(C)n1	3.43%
CC1CN(C(=O)C2(c3ccc(F)cc3F)CCOCC2)CCO1 (centres undefined)	-2.6%
CCN(CC)Cc1ccccc1NCc1c(C)noc1C	-0.774%
COc1ccc(CNCc2c(C)nc3sc(C)cn23)c(OC)c1OC	11.7%
Cn1cc(C(=O)N2CCCC2c2ccc3c(c2)OCO3)ccc1=O (centres undefined)	-1.44%
Cc1csc(C2(NCCC(=O)N3CCOCC3)CCCC2)n1	4.83%
COc1ccnc(N2CCN(Cc3ncc(C(C)(C)C)o3)CC2)n1	6.11%
CC(C)(C)OC(=O)N1CCC(C(=O)NC2CCS(=O)(=O)C2)CC1 (centres undefined)	-6.28%
CCc1ccc(CNC(=O)Nc2cc(C)on2)s1	-9.95%
CCOc1ccc(C(=O)NCc2ccnc(N3CCCC3)c2)cn1	-6.13%
CCn1cnnc1CNC(=O)N(C)Cc1c(F)cccc1Cl	-8.68%
CNS(=O)(=O)c1ccc(CNC(=O)Nc2cc(C)on2)s1	-6.5%
Cc1ccc(C(=O)NCc2ccnc(N3CCN(C)CC3)c2)cn1	-10%
CN(C)C(=O)N1CCC(C(=O)NCCNc2ncccc2C#N)CC1	-4.63%
CC(C)(C)c1cnc(CN2CCN(c3ncccn3)CC2)o1	6.21%
CCN1CCN(C2CCN(C(C(N)=O)c3ccc(F)cc3)CC2)C1=O (centres undefined)	5.11%
CCCN(CC1CC1)C(=O)Nc1ccc(N2CCSCC2)cc1C	-8.14%
CCC(C)N(C)C(=O)Nc1ccc(N2CCSCC2)cc1C (centres undefined)	-5.01%
O=C(NCCCC(=O)N1Cc2ccccc2C1)NCc1ccsc1	5.3%
CN1CCN(C2CCN(C(C(N)=O)c3ccccc3)CC2)C1=O (centres undefined)	-5.22%

SMILES	cytotoxicity at 70.5 h
Cc1csc(C2(NC(=O)NCCN3CCOCC3)CCC2)n1	-8.41%
CC(CNC(=O)c1ccc(F)cc1I)N1CCCC1 (centres undefined)	22%
NC(=O)COc1cccc(C(=O)NCc2ccc(Cl)s2)c1	-11.8%
CN(Cc1ccc(Cl)s1)C(=O)COc1cccc(C(N)=O)c1	-26.8%
CNC(=O)CCS(=O)(=O)Cc1coc(-c2ccc(F)cc2)n1	-20.2%
CC(C)c1noc(CN2CCC(c3nc4cc(Cl)ccc4o3)CC2)n1	-19.1%
Cc1cc(CN2CCN(C(=O)Cc3ccccc3F)CC2)on1	-14%
Cc1nc(CN2CCC(c3nc4cc(Cl)ccc4o3)CC2)oc1C	-19.4%
CN(CC(=O)N1CCN(c2ccccn2)CC1)c1ccc(Cl)cn1	-17.2%
NS(=O)(=O)CCCNC(=O)C1(c2cccc(Cl)c2)CC1	-22.9%
COc1ccc(C(=O)NS(=O)(=O)c2cncc(Br)c2)c(OC)c1	-7.26%
O=C(CCNC(=O)N1CCC(c2ccccc2)C1)N1CCCCC1 (centres undefined)	-13%
CC(CNC(=O)c1ccc(Cl)cc1F)N1CCN(C)CC1 (centres undefined)	13.3%
COc1ccccc1C(=O)NS(=O)(=O)c1cncc(Br)c1	9.9%
Cn1cc(Br)c(=O)c(NS(=O)(=O)c2ccccc2F)c1	-9.33%
CS(=O)(=O)NCCC1CCCCN1C(=O)NCCc1ccccn1 (centres undefined)	-14.3%
Cc1cc(CN2CCN(C(=O)CCc3cccs3)CC2)on1	-18.8%
O=C1NCC2CN(Cc3ccccc3OCc3ccccn3)CCN12 (centres undefined)	-13.1%
CCC(CC)N(C)S(=O)(=O)c1ccc(CCNC(C)=O)s1	1.4%
O=C(CSc1ccc2c(c1)OCCO2)NS(=O)(=O)c1cccs1	-6.92%
CC(NC(=O)N(C)Cc1ccsc1)c1nncn1C (centres undefined)	-2.73%
O=C(NCC(c1cccs1)N1CCOCC1)c1ccc(F)cc1Cl (centres undefined)	-5.9%
COc1cc(Br)c(CNC2CCCNC2=O)cc1OC (centres undefined)	-0.0651%
